Measurements from patent US20110093959A1, “CRYPTOTIS PARVA SCREENING MODEL FOR ANTIEMETIC POTENTIAL” (priority 2008, published 2011).

How the values were obtained:
Assay type in all cases: in vivo, Cryptotis parva
[1] = test system: LTC4-induced emesis in the Least Shrew; test: CysLT1 antagonists against leukotriene LTC4-induced emesis; conditions: dose-dependent
Protocol: Emetic parameters were recorded for 30min post emetic injection.

[2] = test system: GR73632-induced emesis and scratching in the Least Shrew; test: Antagonist interaction study against GR73632 (5 mg/kg, i.p.)-induced emesis and scratching
Description: The present protocols were based upon preliminary studies as well as published findings in the Least Shrew. Darmani, 2001a; Darmani et al., 69 Pharmacol. Biochem. Behay. 239-49 (2001b). On the test day, the shrews were allowed to acclimate to the test laboratory for at least one hour prior to experimentation. To habituate the animals to the test environment, each shrew was randomly selected and transferred to a 20 cm×18 cm×21 cm clean clear plastic cage and offered four mealworms (Tenebrio sp.) 30 min prior to experimentation.
The latter doses of SP and GR73632 were chosen for subsequent antagonist interaction studies to pharmacologically characterize the role of NK1 receptors in the mediation of induced emesis by the use of: (1) two selective neurokinin NK1 receptor antagonists (CP99,994 and L733060) (Watson et al., 115 Br. J. Phramacol. 84-94 (1995); Guiard et al., 89 J. Neurochem. 54-63 (2004)); (2) an NK2 receptor antagonist (GR159897) (Beresford et al., 272 Eur. J. Pharmacol. 241-48 (1995)); and (3) an NK3 receptor antagonist (SB218795) (Salthun-Lassalle et al., 1995).
(§1) For the above drug interaction studies, different doses (i.p.) of either CP99,994 (0, 5, 10, and 20 mg/kg, n=10-14 shrews per group); L733060 (0, 5, 10, and 20 mg/kg, n=10-14 shrews per group), GR159897 (0 mg/kg and 20 mg/kg, n=8 per group) or SB218795 (0 or 20 mg/kg, n=7-8 per group) were administered to different groups of shrews 30 min prior to injection of an emetic dose (5 mg/kg, i.p.) of the NK1-receptor agonist GR73632. Emesis and scratchings were recorded for 30 min immediately following GR73632 administration as described above. The antiemetic effect of CP99,994 (0, 5, and 10 mg/kg, n=9-10 animals per group) was also investigated in a similar manner against SP (50 mg/kg, i.p.)-induced emesis.
The data on the frequency of emesis and scratchings were analyzed by the Kruskal-Wallis (KW) nonparametric one-way analysis of variance (ANOVA) and post hoc analysis by Dunn's multiple comparisons test or Mann-Whitney test. A P value of <0.05 was necessary to attain statistical significance. The incidence of emesis (number of shrews vomiting) was analyzed by the Fisher's exact test to determine whether there were differences between groups. When appropriate, pairwise comparisons were also made by this method. Two-way analysis of variance using the Kruskal-Wallis or Fisher's exact tests were initially utilized to respectively analyze the dose-response results of GR73632 on emesis and scratching behaviors, and percentage of shrews vomiting in saporin- and corresponding saline-pretreated control shrews. […] For some emesis data, the two-tailed Mann-Whitney test was used. The SP tissue concentration data were analyzed by a one-way ANOVA followed by Dunnett's t test as post hoc analysis. Fos-IR was quantified by counting immunopositive nuclei within each hemisection containing the region of interest (ROI). The number of nuclei was averaged across sections with the ROI for each animal, and the group mean and standard error obtained.

[3] = test system: SP-induced emesis in the Least Shrew; test: Antagonist interaction study against SP (50 mg/kg, i.p.)-induced emesis; conditions: antagonist 10 mg/kg i.p., 30 min before SP 50 mg/kg i.p.
Description: The present protocols were based upon preliminary studies as well as published findings in the Least Shrew. Darmani, 2001a; Darmani et al., 69 Pharmacol. Biochem. Behay. 239-49 (2001b). On the test day, the shrews were allowed to acclimate to the test laboratory for at least one hour prior to experimentation. To habituate the animals to the test environment, each shrew was randomly selected and transferred to a 20 cm×18 cm×21 cm clean clear plastic cage and offered four mealworms (Tenebrio sp.) 30 min prior to experimentation. […]
as §1, with “The antiemetic effect of CP99,994 (0, 5, and 10 mg/kg, n=9-10 animals per group) was also investigated in a similar manner against SP (50 mg/kg, i.p.)-induced emesis.” left out
The data on the frequency of emesis and scratchings were analyzed by the Kruskal-Wallis (KW) nonparametric one-way analysis of variance (ANOVA) and post hoc analysis by Dunn's multiple comparisons test or Mann-Whitney test. […]

Row | SMILES | prevention of LTC4-induced emesis [1] | reduction in frequency of GR73632-induced emesis ([2]; antagonist 5 mg/kg i.p.) | reduction in percentage of shrews vomiting in response to GR73632 ([2]; antagonist 5 mg/kg i.p.) | reduction in frequency of GR73632-induced emesis ([2]; antagonist 10 mg/kg i.p.) | reduction in percentage of shrews vomiting in response to GR73632 ([2]; antagonist 10 mg/kg i.p.) | reduction in frequency of GR73632-induced emesis ([2]; antagonist 20 mg/kg i.p.) | reduction in percentage of shrews vomiting in response to GR73632 ([2]; antagonist 20 mg/kg i.p.) | reduction in the frequency of scratching ([2]; antagonist 5, 10, and 20 mg/kg, failed to attain significance) | onset of first emesis induced by GR73632 ([2]; at highest tested effective antiemetic doses) | attenuation of the frequency of SP-induced emesis [3] | shrews protected from SP-induced emesis [3]
1 | O=C(Nc1cccc2c(=O)cc(-c3nnn[nH]3)oc12)c1ccc(OCCCCc2ccccc2)cc1 [Pranlucast, 4-Oxo-8-[(4-phenylbutoxy)benzoylamino]-2-(tetrazol-5-yl)-4H-1-benzopyran] | prevent LTC4-induced emesis completely |  |  |  |  |  |  |  |  |  | 
2 | COc1ccccc1CN[C@H]1CCCN[C@H]1c1ccccc1 (relative stereo) [CP99,994, (2S, 3S)-Cis-3 (2-methoxybenzylamino-2-phenylpiperidine)] |  | 61% | 2.9% | 87% | 60% | 97% | 73% | up to 49% | only delayed the onset of first emesis | 84% | 70%
3 | COc1cc(C(=O)NS(=O)(=O)c2ccccc2C)ccc1Cc1cn(C)c2ccc(NC(=O)OC3CCCC3)cc12 [zafirlucast] | prevent LTC4-induced emesis completely |  |  |  |  |  |  |  |  |  | 
